# Measurements reported in patent US20050009776A1, “Method of treating atrial fibrillation or atrial flutter” (Aderis Pharmaceuticals, Inc., priority 2003, published 2005).
# Marks after values point to notes of the source that are not given here.
# Key:
# [1] = system: A1 receptor / A2A receptor; experiment: Affinity for adenosine A1 receptor relative to A2A receptor; assay type: binding
# Excerpt: Therefore, DTI-0009 may be capable of terminating episodes of supraventricular arrythymias at doses that have little effect on normal heart rate or blood pressure.
# [2] = system: atrioventricular (AV) node; experiment: Example 2: electrophysiologic effects on atrioventricular nodal function, 30-minute i.v. infusion; assay type: in vivo, human
# Method: An open-label, sequential group, dose-escalation study was conducted in electrophysiology laboratories at 11 sites in the United States between October 2000 and August 2001. The study protocol was approved by the institutional review board at each site, and patients provided assent and written informed consent prior to enrollment. Male and female patients (18 to 80 years of age), scheduled to undergo an electrophysiological (EP) study for a known or suspected cardiac arrhythmia or a catheter ablation procedure to an area other than the atrioventricular (AV) node, were enrolled in the study. Study procedures were performed after the completion of the scheduled EP procedure and patients were to be in sinus rhythm at study baseline. Exclusion criteria included: greater than first degree AV block, previous ablation of the AV node or AV node slow pathway, presence of an AV Wenckebach cycle length (AV WBCL)≧500 msec, treatment with atropine during the scheduled EP procedure, systolic blood pressure <90 or >180 mmHg, significant hemodynamic instability, ventricular response rate (VRR)<50 bpm, consumption of caffeine-containing food or beverage within the previous 12 hours, treatment with dipyridamole or diltiazem within the respective 5 half lives or theophylline, aminophylline, treatment with a therapeutic adenosine antagonist within the previous 24 hours, heart transplant or myocardial infarction within 30 days, known hypersensitivity to adenosine, known human immunodeficiency virus infection, or clinically significant hematologic, neurologic, hepatic, or renal function impairment.
# Each patient received 1 of 6 doses of DTI-0009 (0.25, 1.0, 2.5, 4.0, 10.0, or 25.0 μg/kg) diluted in normal saline or normal saline only (control). Study drug was administered as a 30-minute i.v. infusion at a rate of 1 mL/minute. Patients were enrolled in sequential dose groups, beginning with the lowest active dose group and continuing in increasing dose order; the final group received normal saline. The decision to proceed to the next highest dose group was based on the safety response in the previous dose group.
# Electrophysiologic (EP), electrocardiogram (ECG), blood pressure measurements, and blood collection for clinical laboratory measurements were performed at baseline (−10 to 0 minutes), during treatment (between 20 and 30 minutes), and at 10 minutes post-treatment.
# EP measurements included ventricular response rate (VRR) during fixed atrial pacing at 250 and 400 msec (VRR 250 and VRR 400), AV WBCL, the interval from atrium to His bundle (AH interval) during sinus rhythm and rapid fixed atrial pacing at 600 msec, AV node effective refractory period (AVNERP), and atrial effective refractory period (AERP). Ventricular response rate during sinus rhythm was derived from the sinus cycle length.
# ECG measurements included PR interval, QRS complex duration, and QT interval. Efficacy was based on changes in EP and ECG parameters from baseline to the treatment period and to post treatment. Safety was based on the incidence of adverse events, blood pressure measurements, and clinical laboratory values.
# Demographic and baseline information were summarized by dose group. Efficacy variables were summarized overall by dose group at baseline, during treatment, and at post-treatment; mean changes from baseline to treatment period and post-treatment were calculated. Treatment effects (the mean difference between change from baseline for DTI-0009 dose and change from baseline for normal saline) and confidence intervals (95% CI) were estimated from an analysis of covariance (ANCOVA) model with treatment as the main factor and baseline score as a covariate. Regression models were constructed to test for dose responses. Efficacy analyses included all patients who received at least 20 minutes of study drug infusion, had analyzable VRR 250 at baseline and during treatment, and were in sinus rhythm at baseline.
smiles,measurement,setting,value
"CCNC(=O)[C@H]1O[C@@H](n2cnc3c(NC4CCCC4)ncnc32)[C@H](O)[C@@H]1O [DTI-0009, N^6-cyclopentyl-5′-(N-ethyl)carboxamidoadenosine]",affinity for the A1 receptor higher than for the A2A receptor,[1],340 fold
same,AERP Treatment Effect,"[2]; 0.25 μg/kg, during treatment",-9.6 ms
same,AH interval 600 msec Pacing Treatment Effect,"[2]; 0.25 μg/kg, during treatment",4.85 ms
same,AH interval Sinus Rhythm Treatment Effect,"[2]; 0.25 μg/kg, during treatment",-2.8 ms
same,AVNERP Treatment Effect,"[2]; 0.25 μg/kg, during treatment",-7.03 ms
same,AERP Treatment Effect,"[2]; 1.0 μg/kg, during treatment",-18.3 ms
same,AH interval 600 msec Pacing Treatment Effect,"[2]; 1.0 μg/kg, during treatment",2.6 ms
same,AH interval Sinus Rhythm Treatment Effect,"[2]; 1.0 μg/kg, during treatment",-0.1 ms
same,AVNERP Treatment Effect,"[2]; 1.0 μg/kg, during treatment",-1.0 ms
same,PR interval treatment effect,"[2]; 1.0 μg/kg, during treatment, p=0.008",-42.2 ms
same,PR interval treatment effect,"[2]; 1.0 μg/kg, post-treatment, p=0.023",-34.5 ms
same,AERP Treatment Effect,"[2]; 2.5 μg/kg, during treatment",-7.3 ms
same,AH interval 600 msec Pacing Treatment Effect,"[2]; 2.5 μg/kg, during treatment",18.0 ms
same,AH interval Sinus Rhythm Treatment Effect,"[2]; 2.5 μg/kg, during treatment",7.1 ms
same,AVNERP Treatment Effect,"[2]; 2.5 μg/kg, during treatment",16.0 ms
same,AERP Treatment Effect,"[2]; 4.0 μg/kg, during treatment",0.6 ms
same,AH interval 600 msec Pacing Treatment Effect,"[2]; 4.0 μg/kg, during treatment",18.7 ms
same,AH interval Sinus Rhythm Treatment Effect,"[2]; 4.0 μg/kg, during treatment",7.2 ms
same,AVNERP Treatment Effect,"[2]; 4.0 μg/kg, during treatment",82.4 ms
same,VRR 250 treatment effect,"[2]; 4.0 μg/kg, during treatment, CI −51.0, −8.4, p=0.008",−29.7 bpm
same,AERP Treatment Effect,"[2]; 10.0 μg/kg, during treatment",−22.0* msec
same,AH interval 600 msec Pacing Treatment Effect,"[2]; 10.0 μg/kg, during treatment",57.9*** msec
same,AH interval Sinus Rhythm Treatment Effect,"[2]; 10.0 μg/kg, during treatment",21.1** msec
same,AVNERP Treatment Effect,"[2]; 10.0 μg/kg, during treatment",231.5*** msec
same,VRR 250 treatment effect,"[2]; 10.0 μg/kg, during treatment, CI −68.3, −26.4, p=0.001",−47.4 bpm
same,PR interval treatment effect,"[2]; 10.0 μg/kg, post-treatment, p=0.007",42.9 ms
same,AERP Treatment Effect,"[2]; 25.0 μg/kg, during treatment",4.0 ms
same,AH interval 600 msec Pacing Treatment Effect,"[2]; 25.0 μg/kg, during treatment",64.8** msec
same,AH interval Sinus Rhythm Treatment Effect,"[2]; 25.0 μg/kg, during treatment",14.2 ms
same,AVNERP Treatment Effect,"[2]; 25.0 μg/kg, during treatment",198.3* msec
same,VRR 250 treatment effect,"[2]; 25.0 μg/kg, during treatment, CI −85.7, −18.5, p=0.004",−52.1 bpm
same,VRR 250 treatment effect at lower doses,"[2]; 0.25, 1.0, and 2.5 μg/kg",no statistically significant treatment effect
same,QRS duration or QT interval,[2]; during the study,no statistically significant changes
same,AV WBCL treatment effect,"[2]; during treatment, 10.0 and 25.0 μg/kg (p=0.001, p=0.035)",statistically significant treatment effects (increases from baseline)
same,AV WBCL treatment effect,"[2]; post-treatment, 4.0, 10.0 and 25.0 μg/kg (p=0.013, p=0.001, p=0.001)",statistically significant treatment effects (increases from baseline)
